Our source for the IC50 values is patent US11299478B2, “2-cyanopyrimidin-4-yl carbamate or urea derivative or salt thereof, and pharmaceutical composition including same” (HANLIM PHARMACEUTICAL CO., LTD., priority 2018, dated 2022).

Type in all cases: biochemical
One test has as its target T1, cathepsin K (Homo sapiens, UniProt P43235).
T1 sequence (P43235 115-329): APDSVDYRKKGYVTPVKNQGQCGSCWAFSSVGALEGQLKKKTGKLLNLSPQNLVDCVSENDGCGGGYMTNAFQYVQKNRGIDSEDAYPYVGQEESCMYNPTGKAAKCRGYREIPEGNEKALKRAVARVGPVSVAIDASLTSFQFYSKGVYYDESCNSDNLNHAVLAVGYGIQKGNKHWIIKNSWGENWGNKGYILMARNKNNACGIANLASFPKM
Nature of the test: Inhibitory activity assay against cathepsin K (enzyme assay). As to conditions: Z-Phe-Arg-AMC 10 μM, enzyme 1 nM, pH 5.5, 30 minutes. The procedure, abridged:
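Fluorogenic assay with 1 nM cathepsin K and 10 μM Z-Phe-Arg-AMC in pH 5.5 buffer (50 mM MES, 2 mM DTT, 2.5 mM EDTA, 0.01% Triton X-100, 10% DMSO). Ten compound concentrations, 10.0 to 0.000508 μM; 30 min reaction, ex 355/em 460 nm; IC50 by 4-parameter logistic fit.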

The next test concerns the target cathepsin B (Homo sapiens, UniProt P07858). Nature of the test: Inhibitory activity assay against cathepsin B (enzyme assay). The note with it: Z-Arg-Arg-AMC 40 μM, enzyme 1 nM, pH 6.0, 90 minutes. The procedure, abridged:
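1 nM enzyme with 40 μM Z-Arg-Arg-AMC and compound (10.0 μM down to 0.000508 μM, 10 points) in pH 6.0 buffer of 50 mM MES, 5 mM DTT, 2.5 mM EDTA, 0.005% Polysorbate 20, 10% DMSO. Fluorescence (340/460 nm) read after 90 min; IC50 by 4-parameter logistic fit.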

The next test has as its target cathepsin L (Homo sapiens, UniProt P07711). Nature of the test: Inhibitory activity assay against cathepsin L (enzyme assay). The note with it: Z-Phe-Arg-AMC 2 μM, enzyme 3 nM, pH 5.5, 30 minutes. The procedure, abridged: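 Enzyme at 3 nM with 2 μM Z-Phe-Arg-AMC in 50 mM MES pH 5.5, 2.5 mM DTT, 2.5 mM EDTA, 0.005% Polysorbate 20, 10% DMSO; 30 min reaction, AMC fluorescence 340/460 nm. Ten-point series 10.0 μM to 0.000508 μM; IC50 by 4-parameter logistic fit.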

Another test addresses cathepsin S (Homo sapiens, UniProt P25774). Nature of the test: Inhibitory activity assay against cathepsin S (enzyme assay). As to conditions: Z-Phe-Arg-AMC 70 μM, enzyme 3 nM, pH 6.5, 45 minutes. The procedure, abridged: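 Cathepsin S (3 nM final) with Z-Phe-Arg-AMC substrate (70 μM final) in pH 6.5 buffer of 50 mM MES, 2.5 mM DTT, 1.0 mM EDTA, 0.001% BSA, 10% DMSO; compound 10.0 μM down to 0.000508 μM, 10 points. Fluorescence (ex 340/em 460 nm) after 45 min; IC50 by 4-parameter logistic fit.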

Chain of cathepsin S (P25774 115-331, species assumed): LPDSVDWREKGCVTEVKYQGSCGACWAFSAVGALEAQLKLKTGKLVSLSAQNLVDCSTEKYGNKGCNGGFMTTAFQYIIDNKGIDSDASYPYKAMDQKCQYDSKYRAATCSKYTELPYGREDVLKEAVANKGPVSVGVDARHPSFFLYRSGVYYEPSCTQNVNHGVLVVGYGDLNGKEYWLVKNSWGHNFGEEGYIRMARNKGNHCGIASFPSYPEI
Chain of cathepsin L (P07711 114-333, species assumed): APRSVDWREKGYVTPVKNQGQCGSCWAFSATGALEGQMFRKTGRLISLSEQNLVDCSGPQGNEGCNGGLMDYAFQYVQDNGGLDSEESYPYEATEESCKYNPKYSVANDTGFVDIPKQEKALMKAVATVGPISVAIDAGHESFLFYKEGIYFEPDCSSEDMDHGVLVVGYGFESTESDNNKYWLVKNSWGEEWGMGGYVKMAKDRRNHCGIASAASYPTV

In general, IC50 refers to the point on the concentration scale where inhibition reaches its midpoint. Turning to `N#Cc1nccc(C2(NC(=O)Nc3cc(C(F)(F)F)ccc3CO)CCCCC2)n1` [Example 108, 1-(1-(2-cyanopyrimidin-4-yl)cyclohexyl)-3-(2-(hydroxymethyl)-5-(trifluoromethyl)phenyl)urea], the IC50 at cathepsin K is 6.9 nM; on cathepsin B, greater than 10000 nM; against cathepsin L, 2270 nM; at cathepsin S it was 9850 nM.

Turning to `N#Cc1nccc(C2(NC(=O)Nc3cccc(Br)c3)CCCCC2)n1` [Example 109, 1-(3-bromophenyl)-3-(1-(2-cyanopyrimidin-4-yl)cyclohexyl)urea], the IC50 was 11 nM on cathepsin K, greater than 10000 nM against cathepsin B, 1920 nM against cathepsin L and 7620 nM against cathepsin S.

On to `N#Cc1nccc(C2(NC(=O)Nc3ccc(Br)cc3)CCCCC2)n1` [Example 110, 1-(4-bromophenyl)-3-(1-(2-cyanopyrimidin-4-yl)cyclohexyl)urea], for which the IC50 at cathepsin K is 22.9 nM; against cathepsin B, greater than 10000 nM; at cathepsin L, greater than 10000 nM; at cathepsin S, greater than 10000 nM.

With `N#Cc1nccc(C2(NC(=O)Nc3cccc(-c4ccccc4)c3)CCCCC2)n1` [Example 111, 1-([1,1′-biphenyl]-3-yl)-3-(1-(2-cyanopyrimidin-4-yl)cyclohexyl)urea], the IC50 is 71.5 nM on cathepsin K, greater than 10000 nM on cathepsin B, greater than 10000 nM on cathepsin L and greater than 10000 nM against cathepsin S.

As for `N#Cc1nccc(C2(NC(=O)Nc3ccc(-c4ccccc4)cc3)CCCCC2)n1` [Example 113, 1-([1,1′-biphenyl]-4-yl)-3-(1-(2-cyanopyrimidin-4-yl)cyclohexyl)urea], the IC50 is 12.2 nM at cathepsin K, greater than 10000 nM on cathepsin B, greater than 10000 nM at cathepsin L and greater than 10000 nM on cathepsin S.

Turning to `N#Cc1nccc(C2(NC(=O)Nc3ccc(-c4ccc(C(F)(F)F)cc4)cc3)CCCCC2)n1` [Example 114, 1-(1-(2-cyanopyrimidin-4-yl)cyclohexyl)-3-(4′-(trifluoromethyl)-[1,1′-biphenyl]-4-yl)urea], the IC50 was 69.7 nM at cathepsin K, greater than 10000 nM against cathepsin B, greater than 10000 nM against cathepsin L and greater than 10000 nM at cathepsin S.

Turning to `N#Cc1nccc(C2(NC(=O)Nc3ccc(-c4ccc(O)cc4)cc3)CCCCC2)n1` [Example 115, 1-(1-(2-cyanopyrimidin-4-yl)cyclohexyl)-3-(4′-hydroxy-[1,1′-biphenyl]-4-yl)urea], the IC50 at cathepsin K was 9.2 nM; against cathepsin B it was greater than 10000 nM; on cathepsin L, greater than 10000 nM; against cathepsin S, greater than 10000 nM.

Regarding `CS(=O)(=O)c1ccc(-c2ccc(NC(=O)NC3(c4ccnc(C#N)n4)CCCCC3)cc2)cc1` [Example 116, 1-(1-(2-cyanopyrimidin-4-yl)cyclohexyl)-3-(4′-(methylsulfonyl)-[1,1′-biphenyl]-4-yl)urea], the IC50 at cathepsin K is 2.1 nM; against cathepsin B, greater than 10000 nM; against cathepsin L, greater than 10000 nM; against cathepsin S it was greater than 10000 nM.

With `N#Cc1nccc(C2(NC(=O)Nc3ccc(-c4ccc(N5CCOCC5)cc4)cc3)CCCCC2)n1` [Example 117, 1-(1-(2-cyanopyrimidin-4-yl)cyclohexyl)-3-(4′-morpholino-[1,1′-biphenyl]-4-yl)urea], the IC50 at cathepsin K was 4.1 nM; on cathepsin B it was greater than 10000 nM; against cathepsin L, greater than 10000 nM; at cathepsin S, greater than 10000 nM.

For `Cn1ncc2ccc(-c3ccc(NC(=O)NC4(c5ccnc(C#N)n5)CCCCC4)cc3)cc21` [Example 118, 1-(1-(2-cyanopyrimidin-4-yl)cyclohexyl)-3-(4-(1-methyl-1H-indazol-6-yl)phenyl)urea], the IC50 on cathepsin K was 16.6 nM; on cathepsin B it was greater than 10000 nM; on cathepsin L, greater than 10000 nM; against cathepsin S it was greater than 10000 nM.

Turning to `N#Cc1nccc(C2(NC(=O)Nc3ccc(-c4ccncc4)cc3)CCCCC2)n1` [Example 119, 1-(1-(2-cyanopyrimidin-4-yl)cyclohexyl)-3-(4-(pyridin-4-yl)phenyl)urea], the IC50 on cathepsin K was 9.6 nM; at cathepsin B, greater than 10000 nM; on cathepsin L it was 6790 nM; on cathepsin S, greater than 10000 nM.

As for `Cn1cc(-c2ccc(NC(=O)NC3(c4ccnc(C#N)n4)CCCCC3)cc2)cn1` [Example 120, 1-(1-(2-cyanopyrimidin-4-yl)cyclohexyl)-3-(4-(1-methyl-1H-pyrazol-4-yl)phenyl)urea], the IC50 is 3.9 nM at cathepsin K, 9280 nM on cathepsin B, greater than 10000 nM at cathepsin L and greater than 10000 nM against cathepsin S.

As for `N#Cc1nccc(C2(NC(=O)Nc3ccc(-c4ccc(F)cc4)cc3)CCCCC2)n1` [Example 121, 1-(1-(2-cyanopyrimidin-4-yl)cyclohexyl)-3-(4′-fluoro-[1,1′-biphenyl]-4-yl)urea], the IC50 at cathepsin K is 17.2 nM; against cathepsin B it was greater than 10000 nM; against cathepsin L it was greater than 10000 nM; at cathepsin S, greater than 10000 nM.

Consider `C#Cc1ccc(-c2ccc(NC(=O)NC3(c4ccnc(C#N)n4)CCCCC3)cc2)cc1` [Example 122, 1-(1-(2-cyanopyrimidin-4-yl)cyclohexyl)-3-(4′-ethynyl-[1,1′-biphenyl]-4-yl)urea], for which the IC50 on cathepsin K was 16.9 nM; against cathepsin B, greater than 10000 nM; at cathepsin L, greater than 10000 nM; against cathepsin S, greater than 10000 nM.

For the molecule `N#Cc1nccc(C2(NC(=O)Nc3ccc(-c4cccc(F)c4)cc3)CCCCC2)n1` [Example 123, 1-(1-(2-cyanopyrimidin-4-yl)cyclohexyl)-3-(3′-fluoro-[1,1′-biphenyl]-4-yl)urea], the IC50 was 10.2 nM on cathepsin K, greater than 10000 nM on cathepsin B, greater than 10000 nM on cathepsin L and greater than 10000 nM against cathepsin S.

Turning to `N#Cc1nccc(C2(NC(=O)Nc3ccc(-c4ccccc4F)cc3)CCCCC2)n1` [Example 124, 1-(1-(2-cyanopyrimidin-4-yl)cyclohexyl)-3-(2′-fluoro-[1,1′-biphenyl]-4-yl)urea], the IC50 on cathepsin K was 6.9 nM; at cathepsin B, greater than 10000 nM; at cathepsin L it was greater than 10000 nM; against cathepsin S it was greater than 10000 nM.

Regarding `N#Cc1nccc(C2(NC(=O)Nc3ccc(-c4ccc(F)nc4)cc3)CCCCC2)n1` [Example 125, 1-(1-(2-cyanopyrimidin-4-yl)cyclohexyl)-3-(4-(6-fluoropyridin-3-yl)phenyl)urea], the IC50 is 15.2 nM at cathepsin K, greater than 10000 nM at cathepsin B, greater than 10000 nM at cathepsin L and 5420 nM on cathepsin S.

`N#Cc1nccc(C2(NC(=O)Nc3ccc(-c4ccc(C(F)(F)F)nc4)cc3)CCCCC2)n1` [Example 126, 1-(1-(2-cyanopyrimidin-4-yl)cyclohexyl)-3-(4-(6-(trifluoromethyl)pyridin-3-yl)phenyl)urea]: the IC50 was 25.1 nM at cathepsin K, greater than 10000 nM at cathepsin B, greater than 10000 nM at cathepsin L and 5750 nM against cathepsin S.

Consider `COc1ccc(-c2ccc(NC(=O)NC3(c4ccnc(C#N)n4)CCCCC3)cc2)cn1` [Example 127, 1-(1-(2-cyanopyrimidin-4-yl)cyclohexyl)-3-(4-(6-methoxypyridin-3-yl)phenyl)urea], for which the IC50 on cathepsin K is 10.9 nM; on cathepsin B, greater than 10000 nM; at cathepsin L, greater than 10000 nM; on cathepsin S, greater than 10000 nM.

In the case of `N#Cc1nccc(C2(NC(=O)Nc3ccc(-c4cccnc4)cc3)CCCCC2)n1` [Example 128, 1-(1-(2-cyanopyrimidin-4-yl)cyclohexyl)-3-(4-(pyridin-3-yl)phenyl)urea], the IC50 was 13.6 nM on cathepsin K, greater than 10000 nM against cathepsin B, greater than 10000 nM against cathepsin L and 9060 nM at cathepsin S.

Turning to `CC(=O)Nc1ccc(-c2ccc(NC(=O)NC3(c4ccnc(C#N)n4)CCCCC3)cc2)cc1` [Example 129, N-(4′-(3-(1-(2-cyanopyrimidin-4-yl)cyclohexyl)ureido)-[1,1′-biphenyl]-4-yl)acetamide], the IC50 was 4.9 nM on cathepsin K, greater than 10000 nM against cathepsin B, greater than 10000 nM against cathepsin L and greater than 10000 nM on cathepsin S.

As to `CN(C)C(=O)c1ccc(-c2ccc(NC(=O)NC3(c4ccnc(C#N)n4)CCCCC3)cc2)cc1` [Example 130, 4′-(3-(1-(2-cyanopyrimidin-4-yl)cyclohexyl)ureido)-N,N-dimethyl-[1,1′-biphenyl]-4-carboxamide], the IC50 at cathepsin K is 7.8 nM; at cathepsin B, greater than 10000 nM; against cathepsin L, greater than 10000 nM; on cathepsin S, 9070 nM.
